The values below come from PMC11433825, “Bidentate Substrate Binding Mode in Oxalate Decarboxylase” (Molecules, 2024).

Assay [1] concerns the target T1, Oxalate decarboxylase (OxDC) (Bacillus subtilis, UniProt O34714, W96F).
T1 construct: recombinant, C-terminal His6 tag kept, IPTG/heat-shock expression with MnCl2, Ni-NTA purified; Mn(II) in two cupin sites per subunit
As to the kind of experiment: X-band […] Mims ENDOR. The format is binding. Conditions: labelled compound (13C), 50 mM; citrate pH 5.0, 50% glycerol, 10 mM ascorbate, 5 uM DTPA; 5 K; bidentate to N-terminal active-site Mn(II).

Assay [2] addresses T2, Oxalate decarboxylase (OxDC) (Bacillus subtilis, UniProt O34714).
T2 construct: recombinant, C-terminal His6 tag kept, IPTG/heat-shock expression with MnCl2, Ni-NTA purified; Mn(II) in two cupin sites per subunit
As to the kind of experiment: X-band […] Mims ENDOR. The format is binding. Conditions: labelled compound (13C), 50 mM; Tris pH 8.5, 50% glycerol, 10 mM ascorbate, 5 uM DTPA; 5 K; bidentate to N-terminal active-site Mn(II).

Counter-ions that a name gives are not always drawn.

T1 sequence (O34714 whole entry W96F): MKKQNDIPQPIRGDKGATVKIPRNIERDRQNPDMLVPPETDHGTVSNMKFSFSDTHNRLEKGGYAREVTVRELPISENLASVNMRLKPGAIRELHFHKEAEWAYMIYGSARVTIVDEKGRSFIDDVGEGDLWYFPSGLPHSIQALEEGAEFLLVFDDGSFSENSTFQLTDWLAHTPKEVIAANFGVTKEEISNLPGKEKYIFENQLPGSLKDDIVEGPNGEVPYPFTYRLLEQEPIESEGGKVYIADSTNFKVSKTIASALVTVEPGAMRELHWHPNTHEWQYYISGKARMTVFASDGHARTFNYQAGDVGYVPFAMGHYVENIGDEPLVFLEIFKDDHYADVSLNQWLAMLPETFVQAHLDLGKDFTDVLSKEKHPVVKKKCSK
T2 sequence (O34714 whole entry): as the sequence (O34714 whole entry W96F) above, with F96W counted along it

As for `O=C(O)C(=O)O` [^13C-labeled oxalate], the “X-band 13C Mims ENDOR” value was “Mn(II) ion in the active site of the OxDC mutant W96F at low pH” in assay [1] and “bidentate binding of oxalate in WT OxDC at high pH where the enzyme is inactive” in assay [2].
